Data taken from ChEMBL document CHEMBL6096675 (J Med Chem, 2025).
The source made the active and inactive calls. The rule behind the calls is not given here.

Assays:
[1] = Toxicity in SCID mouse assessed as body weight loss at 50 mg/kg, iv twice a week; assay type: organism-based; conditions: in vivo
NCI-H1792 = assay: Antiproliferative activity against human SMARCA4-wild type NCI-H1792 cells assessed as maximal inhibition of cell growth measured after 7 days by WST-8 assay relative to control; assay type: functional; conditions: time 7 day
NCI-H838 [2] = assay: In vivo anti-tumor activity against human NCI-H838 cells xenografted in SCID mouse assessed as assessed as inhibition of tumor growth at 30 mg/kg, iv treated for 3 weeks measured after treatment stop; assay type: functional, organism-based
[3] = Drug uptake in tumor of mouse xenografted with human MV4-11 cells at 30 mg/kg, iv single dose measured after 24 hrs by LC-MS/MS analysis; assay type: ADME, organism-based, Neoplasm; conditions: read-out: Drug uptake
[4] = Plasma concentration in mouse xenografted with human H838 cells at 10 mg/kg, iv single dose measured after 48 hrs by LC-MS/MS analysis; assay type: ADME, organism-based, NCI-H838
[5] = Metabolic stability in rat liver microsomes assessed as half life; assay type: ADME, Microsome
Cytochrome P450 3A4 [6] = biological target: T1, Cytochrome P450 3A4 (Homo sapiens, UniProt P08684); assay: Inhibition of CYP3A4 (unknown origin) using testosterone as substrate; assay type: ADME
Cytochrome P450 3A4 [7] = biological target: T1, Cytochrome P450 3A4; assay: Inhibition of CYP3A4 (unknown origin) using midazolam as substrate; assay type: ADME
[8] = Volume of distribution of steady state in mouse at 1 mg/kg, iv; assay type: ADME, organism-based; conditions: in vivo, read-out: Vdss
[9] = Plasma concentration in mouse xenografted with human H838 cells at 10 mg/kg, iv single dose measured after 168 hrs by LC-MS/MS analysis; assay type: ADME, organism-based, NCI-H838; conditions: in vivo
[10] = Plasma stability in rat plasma assessed as half life; assay type: ADME, cell-free
Cytochrome P450 2B6 = biological target: T2, Cytochrome P450 2B6 (Homo sapiens, UniProt P20813); assay: Inhibition of CYP2B6 (unknown origin); assay type: ADME
T2 sequence (P20813 whole entry): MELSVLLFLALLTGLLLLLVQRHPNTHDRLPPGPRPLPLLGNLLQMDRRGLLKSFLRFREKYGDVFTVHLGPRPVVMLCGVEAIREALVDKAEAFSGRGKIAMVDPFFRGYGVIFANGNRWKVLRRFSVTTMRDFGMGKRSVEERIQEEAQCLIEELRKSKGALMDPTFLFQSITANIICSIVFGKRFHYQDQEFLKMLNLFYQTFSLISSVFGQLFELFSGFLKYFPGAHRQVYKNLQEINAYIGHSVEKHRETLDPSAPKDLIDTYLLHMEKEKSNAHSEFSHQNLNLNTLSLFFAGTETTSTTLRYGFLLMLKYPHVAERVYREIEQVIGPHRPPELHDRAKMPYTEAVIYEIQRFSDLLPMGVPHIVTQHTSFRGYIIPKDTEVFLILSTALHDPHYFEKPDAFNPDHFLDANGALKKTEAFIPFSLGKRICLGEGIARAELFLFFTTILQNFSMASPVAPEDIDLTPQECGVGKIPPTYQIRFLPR

[11] = Plasma stability in mouse plasma assessed as half life; assay type: ADME, cell-free
[12] = Plasma concentration in mouse xenografted with human MV4-11 cells at 30 mg/kg, iv single dose measured after 168 hrs by LC-MS/MS analysis; assay type: ADME, organism-based
[13] = Drug uptake in tumor of human NCI-H838 cells xenografted SCID mouse model at 10 mg/kg, iv measured after 96 hrs by LC-MS/MS analysis; assay type: ADME, organism-based, Neoplasm; conditions: read-out: Drug uptake
[14] = Drug uptake in tumor of mouse xenografted with human H838 cells at 10 mg/kg, iv single dose measured after 6 hrs by LC-MS/MS analysis; assay type: ADME, organism-based, Neoplasm, NCI-H838; conditions: read-out: Drug uptake
[15] = Clearance in mouse at 1 mg/kg, iv; assay type: ADME, organism-based; conditions: in vivo
[16] = Antiproliferative activity against human SMARCA4-deficient NCI-H838 cells assessed as maximal inhibition of cell growth measured after 7 days by WST-8 assay relative to control; assay type: functional; conditions: time 7 day
Cytochrome P450 2C9 = Cytochrome P450 2C9 (Homo sapiens, UniProt P11712); assay: Inhibition of CYP2C9 (unknown origin); assay type: ADME
[17] = Plasma concentration in SCID mouse xenografted with human NCI-H838 cells at 10 mg/kg, iv measured after 24 hrs by LC-MS/MS analysis; assay type: ADME, organism-based
NCI-H838 [18] = assay: In vivo anti-tumor activity against human NCI-H838 cells xenografted in SCID mouse assessed as assessed as inhibition of tumor growth at 10 mg/kg, iv measured after 3 weeks relative to control; assay type: functional; conditions: NCI-H838, 504 h, read-out: TGI
[19] = Plasma stability in human plasma assessed as half life; assay type: ADME, cell-free
[20] = Drug uptake in tumor of mouse xenografted with human H838 cells at 10 mg/kg, iv single dose measured after 168 hrs by LC-MS/MS analysis; assay type: ADME, organism-based, Neoplasm, NCI-H838; conditions: read-out: Drug uptake
[21] = AUC (0 to 24hrs) in rat at 1 mg/kg, iv; assay type: ADME, organism-based; conditions: in vivo
[22] = biological target: SWI/SNF-related matrix-associated actin-dependent regulator of chromatin subfamily A member 2 (Homo sapiens, UniProt P51531); assay: Inhibition of human SMARCA2 by TR-FRET assay
[23] = Toxicity in SCID mouse assessed as toxicity signs at 50 mg/kg, iv twice a week; assay type: organism-based; conditions: in vivo
[24] = Drug uptake in tumor of human NCI-H838 cells xenografted SCID mouse model at 10 mg/kg, iv measured after 168 hrs by LC-MS/MS analysis; assay type: ADME, organism-based, Neoplasm; conditions: read-out: Drug uptake
[25] = Plasma concentration in mouse xenografted with human MV4-11 cells at 30 mg/kg, iv single dose measured after 24 hrs by LC-MS/MS analysis; assay type: ADME, organism-based
[26] = Volume of distribution of steady state in rat at 1 mg/kg, iv; assay type: ADME, organism-based; conditions: in vivo, read-out: Vdss
[27] = Antiproliferative activity against human […] NCI-H1975 cells assessed as inhibition of cell growth measured after 7 days by WST-8 assay; assay type: functional; conditions: NCI-H1975, 168 h, time 7 day
[28] = Drug uptake in tumor of human NCI-H838 cells xenografted SCID mouse model at 10 mg/kg, iv measured after 48 hrs by LC-MS/MS analysis; assay type: ADME, organism-based, Neoplasm; conditions: read-out: Drug uptake
[29] = Antiproliferative activity against human SMARCA4-deficient NCI-H838 cells assessed as inhibition of cell growth measured after 7 days by WST-8 assay; assay type: functional; conditions: NCI-H838, 168 h, time 7 day
[30] = Cmax in rat at 1 mg/kg, iv; assay type: ADME, organism-based; conditions: in vivo
NCI-H838 [31] = assay: In vivo anti-tumor activity against SMARCA4-deficient human NCI-H838 cells xenografted in SCID mouse assessed as assessed as inhibition of tumor growth at 10 to 30 mg/kg, iv weekly once; assay type: functional, organism-based; conditions: dose 10-30 mg/kg
[32] = Plasma concentration in SCID mouse xenografted with human NCI-H838 cells at 10 mg/kg, iv measured after 96 hrs by LC-MS/MS analysis; assay type: ADME, organism-based
SK-MEL-5 = assay: Antiproliferative activity against human SMARCA4-deficient SK-MEL-5 cells assessed as maximal inhibition of cell growth measured after 7 days by WST-8 assay relative to control; assay type: functional; conditions: time 7 day
[33] = Cmax in mouse at 1 mg/kg, iv; assay type: ADME, organism-based; conditions: in vivo
[34] = Half life in rat at 1 mg/kg, iv; assay type: ADME, organism-based; conditions: in vivo

T1 sequence (P08684 whole entry): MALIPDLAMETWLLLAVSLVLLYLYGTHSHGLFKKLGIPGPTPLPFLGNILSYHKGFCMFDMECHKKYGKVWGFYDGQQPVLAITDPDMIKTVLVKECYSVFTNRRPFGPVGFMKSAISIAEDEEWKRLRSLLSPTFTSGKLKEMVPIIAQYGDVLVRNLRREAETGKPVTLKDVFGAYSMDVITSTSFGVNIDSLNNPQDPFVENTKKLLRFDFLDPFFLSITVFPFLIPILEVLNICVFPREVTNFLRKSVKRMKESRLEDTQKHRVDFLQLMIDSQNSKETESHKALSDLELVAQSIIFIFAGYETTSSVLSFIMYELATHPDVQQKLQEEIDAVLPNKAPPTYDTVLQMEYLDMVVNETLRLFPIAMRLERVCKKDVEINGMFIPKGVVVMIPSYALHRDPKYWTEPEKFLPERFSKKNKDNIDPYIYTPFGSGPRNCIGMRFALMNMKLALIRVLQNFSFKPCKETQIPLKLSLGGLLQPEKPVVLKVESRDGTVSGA
Chain of Cytochrome P450 2C9 (P11712 whole entry): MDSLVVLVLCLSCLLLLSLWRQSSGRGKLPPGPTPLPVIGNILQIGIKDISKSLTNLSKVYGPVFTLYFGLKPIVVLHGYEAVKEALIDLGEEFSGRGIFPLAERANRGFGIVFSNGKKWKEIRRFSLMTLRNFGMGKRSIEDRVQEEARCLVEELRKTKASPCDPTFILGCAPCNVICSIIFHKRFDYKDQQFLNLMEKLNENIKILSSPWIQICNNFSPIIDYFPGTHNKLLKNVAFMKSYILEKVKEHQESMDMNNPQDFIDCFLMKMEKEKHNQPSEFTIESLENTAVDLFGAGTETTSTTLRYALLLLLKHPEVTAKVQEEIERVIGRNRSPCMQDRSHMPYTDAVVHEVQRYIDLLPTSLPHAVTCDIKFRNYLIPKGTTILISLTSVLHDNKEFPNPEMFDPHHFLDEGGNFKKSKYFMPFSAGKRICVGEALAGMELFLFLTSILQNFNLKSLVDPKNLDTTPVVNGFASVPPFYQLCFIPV
Chain of SWI/SNF-related matrix-associated actin-dependent regulator of chromatin subfamily A member 2 (P51531 whole entry): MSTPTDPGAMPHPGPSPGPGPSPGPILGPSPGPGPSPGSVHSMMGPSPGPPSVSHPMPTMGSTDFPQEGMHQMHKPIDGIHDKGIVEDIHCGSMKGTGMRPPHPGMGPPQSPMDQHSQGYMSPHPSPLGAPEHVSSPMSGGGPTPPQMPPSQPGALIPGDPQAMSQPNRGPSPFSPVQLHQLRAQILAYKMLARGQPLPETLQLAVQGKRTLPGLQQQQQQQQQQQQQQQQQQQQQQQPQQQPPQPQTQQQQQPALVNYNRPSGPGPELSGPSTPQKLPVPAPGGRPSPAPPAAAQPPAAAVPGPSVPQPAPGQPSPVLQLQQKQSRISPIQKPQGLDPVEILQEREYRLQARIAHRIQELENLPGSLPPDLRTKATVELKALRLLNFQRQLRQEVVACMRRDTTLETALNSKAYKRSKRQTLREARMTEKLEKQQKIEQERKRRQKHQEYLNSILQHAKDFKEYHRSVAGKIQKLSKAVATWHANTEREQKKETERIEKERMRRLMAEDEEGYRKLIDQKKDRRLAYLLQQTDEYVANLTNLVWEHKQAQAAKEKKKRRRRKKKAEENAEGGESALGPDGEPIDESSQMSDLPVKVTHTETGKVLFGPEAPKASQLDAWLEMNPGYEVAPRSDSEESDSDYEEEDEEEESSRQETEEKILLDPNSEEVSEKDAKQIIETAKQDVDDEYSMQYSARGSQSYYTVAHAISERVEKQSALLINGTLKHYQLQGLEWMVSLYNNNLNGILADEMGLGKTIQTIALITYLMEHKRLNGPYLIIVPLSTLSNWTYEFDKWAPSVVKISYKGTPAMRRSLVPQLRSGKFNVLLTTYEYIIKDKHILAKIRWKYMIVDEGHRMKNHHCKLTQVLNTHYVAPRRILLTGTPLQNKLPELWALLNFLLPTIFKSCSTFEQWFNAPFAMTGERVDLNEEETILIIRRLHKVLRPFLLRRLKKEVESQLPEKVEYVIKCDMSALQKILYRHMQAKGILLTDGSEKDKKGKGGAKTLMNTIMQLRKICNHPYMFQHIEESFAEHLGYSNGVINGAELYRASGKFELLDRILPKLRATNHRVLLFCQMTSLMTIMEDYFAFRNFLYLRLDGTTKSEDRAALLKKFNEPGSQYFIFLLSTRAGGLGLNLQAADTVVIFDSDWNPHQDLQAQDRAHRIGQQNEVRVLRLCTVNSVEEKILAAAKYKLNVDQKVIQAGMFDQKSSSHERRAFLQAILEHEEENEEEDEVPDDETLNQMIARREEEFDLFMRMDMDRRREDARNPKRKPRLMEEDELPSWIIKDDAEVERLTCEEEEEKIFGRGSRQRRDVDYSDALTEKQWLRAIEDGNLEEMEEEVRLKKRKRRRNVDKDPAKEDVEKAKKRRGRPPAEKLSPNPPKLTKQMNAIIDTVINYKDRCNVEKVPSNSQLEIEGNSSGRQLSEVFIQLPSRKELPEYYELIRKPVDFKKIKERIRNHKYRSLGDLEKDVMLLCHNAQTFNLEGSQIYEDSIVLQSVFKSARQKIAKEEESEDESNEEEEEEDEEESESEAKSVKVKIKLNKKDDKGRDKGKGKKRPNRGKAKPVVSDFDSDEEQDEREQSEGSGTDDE

concentration at 24 h [3]: 2290 ng/mL
concentration at 48 h [4]: 15 ng/mL
half-life [5]: > 60 min
IC50 (Cytochrome P450 3A4 [6]): > 100 µM
IC50 (Cytochrome P450 3A4 [7]): > 100 µM
Vd [8]: 1.9 L/kg
Cp [9]: Below_limit_of_detection
half-life [10]: > 120 min
IC50 (Cytochrome P450 2B6): > 100 µM
half-life [11]: > 120 min
concentration at 168 h [12]: 19 ng/mL
concentration at 96 h [13]: 268 ng/mL
concentration at 6 h [14]: 608 ng/mL
clearance [15]: 9.2 mL/min/kg
IC50 (Cytochrome P450 2C9): > 100 µM
concentration at 24 h [17]: 50 ng/mL
half-life [19]: > 120 min
concentration at 168 h [20]: 169 ng/mL
AUC(0-t) [21]: 753 ng·h/mL
IC50 [22]: 42.2 nM
concentration at 168 h [24]: 169 ng/mL
concentration at 24 h [25]: 139 ng/mL
Vd [26]: 0.9 L/kg
concentration at 48 h [28]: 437 ng/mL
Cmax [30]: 2420 ng/mL
concentration at 96 h [32]: 6.8 ng/mL
Cmax [33]: 2230 ng/mL
half-life [34]: 378 min
SMILES: Cc1ncsc1-c1ccc([C@H](CN2CCOCC2)NC(=O)[C@@H]2C[C@@H](O)CN2C(=O)[C@@H](n2cc([C@H]3CC[C@H](CN4CCC(c5ccc6c(c5)-n5c(nc(=O)c7c(Cl)cccc75)C65CCCCC5)CC4)CC3)nn2)C(C)(C)C)cc1
Activity [1]: Non-toxic
Imax (NCI-H1792): 80%
Activity (NCI-H838 [2]): inactive
Imax [16]: 80%
inhibition in vivo at 10 mg/kg (NCI-H838 [18]): 87%
Activity [23]: Non-toxic
GI50 [27]: > 10 µM
GI50 [29]: 9.5 nM
Activity (NCI-H838 [31]): Active
Imax (SK-MEL-5): 95%
